# What was measured:
# Coagulation factor IX = Coagulation factor IX (Homo sapiens, UniProt P00740); assay: Inhibition of human factor 9a using CH3SO2-D-CHG-Gly-Arg-AFC.AcOH as substrate by fluorescence assay
# Coagulation factor X = Coagulation factor X (Homo sapiens, UniProt P00742); assay: Inhibition of human factor 10a using n-Acetyl-KPR-AFC as substrate by fluorescence assay
# [1] = Inhibition of CYP (unknown origin); format: ADME; settings: human
# [2] = target: Voltage-gated inwardly rectifying potassium channel KCNH2 (Homo sapiens, UniProt Q12809); assay: Inhibition of human ERG
# Chain of Voltage-gated inwardly rectifying potassium channel KCNH2 (Q12809 whole entry): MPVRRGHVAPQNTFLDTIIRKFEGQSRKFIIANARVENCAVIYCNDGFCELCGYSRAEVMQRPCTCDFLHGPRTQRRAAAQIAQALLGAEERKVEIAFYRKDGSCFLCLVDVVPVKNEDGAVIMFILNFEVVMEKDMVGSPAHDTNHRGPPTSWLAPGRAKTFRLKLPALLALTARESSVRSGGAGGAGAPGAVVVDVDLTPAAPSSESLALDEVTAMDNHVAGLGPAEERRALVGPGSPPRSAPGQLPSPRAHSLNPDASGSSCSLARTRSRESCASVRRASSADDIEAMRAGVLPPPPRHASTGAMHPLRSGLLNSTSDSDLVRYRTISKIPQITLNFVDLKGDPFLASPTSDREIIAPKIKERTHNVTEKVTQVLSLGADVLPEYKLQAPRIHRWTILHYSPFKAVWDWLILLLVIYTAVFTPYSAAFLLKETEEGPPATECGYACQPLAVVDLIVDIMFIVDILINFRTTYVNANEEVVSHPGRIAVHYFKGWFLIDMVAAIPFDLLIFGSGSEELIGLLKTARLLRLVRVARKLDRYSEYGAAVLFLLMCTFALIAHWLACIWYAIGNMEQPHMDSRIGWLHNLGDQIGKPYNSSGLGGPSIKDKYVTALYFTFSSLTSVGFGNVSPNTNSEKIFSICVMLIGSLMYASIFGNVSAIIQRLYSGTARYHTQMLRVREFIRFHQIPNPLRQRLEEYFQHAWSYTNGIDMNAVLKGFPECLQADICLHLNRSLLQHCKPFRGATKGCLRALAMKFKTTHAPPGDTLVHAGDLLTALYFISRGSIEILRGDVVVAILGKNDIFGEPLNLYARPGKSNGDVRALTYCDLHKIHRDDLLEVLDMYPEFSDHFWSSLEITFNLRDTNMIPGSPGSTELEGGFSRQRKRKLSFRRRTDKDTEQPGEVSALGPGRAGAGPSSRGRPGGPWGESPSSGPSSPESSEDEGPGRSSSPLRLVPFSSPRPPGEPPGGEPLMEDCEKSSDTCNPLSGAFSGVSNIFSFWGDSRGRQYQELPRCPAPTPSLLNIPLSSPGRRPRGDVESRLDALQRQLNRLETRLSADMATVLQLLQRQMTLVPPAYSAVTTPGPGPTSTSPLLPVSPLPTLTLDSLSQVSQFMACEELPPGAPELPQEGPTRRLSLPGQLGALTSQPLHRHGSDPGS
# Chain of Coagulation factor X (P00742 41-179 limits assumed): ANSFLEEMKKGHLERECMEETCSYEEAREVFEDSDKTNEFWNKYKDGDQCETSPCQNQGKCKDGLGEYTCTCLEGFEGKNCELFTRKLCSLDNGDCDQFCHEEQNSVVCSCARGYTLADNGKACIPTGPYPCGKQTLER
# Chain of Coagulation factor X (P00742 235-488 limits assumed): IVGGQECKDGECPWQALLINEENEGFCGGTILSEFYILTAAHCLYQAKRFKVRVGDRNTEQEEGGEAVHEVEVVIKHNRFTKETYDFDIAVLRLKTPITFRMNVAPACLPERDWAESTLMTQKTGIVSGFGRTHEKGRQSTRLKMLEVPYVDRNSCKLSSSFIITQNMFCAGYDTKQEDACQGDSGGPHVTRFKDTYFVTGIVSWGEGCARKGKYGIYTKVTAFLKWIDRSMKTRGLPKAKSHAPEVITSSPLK
# Chain of Coagulation factor IX (P00740 47-191 limits assumed): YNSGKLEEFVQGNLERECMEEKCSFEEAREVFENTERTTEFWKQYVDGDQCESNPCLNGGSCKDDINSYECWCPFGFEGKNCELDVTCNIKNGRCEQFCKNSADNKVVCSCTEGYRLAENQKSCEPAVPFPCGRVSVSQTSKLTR
# Chain of Coagulation factor IX (P00740 227-461 limits assumed): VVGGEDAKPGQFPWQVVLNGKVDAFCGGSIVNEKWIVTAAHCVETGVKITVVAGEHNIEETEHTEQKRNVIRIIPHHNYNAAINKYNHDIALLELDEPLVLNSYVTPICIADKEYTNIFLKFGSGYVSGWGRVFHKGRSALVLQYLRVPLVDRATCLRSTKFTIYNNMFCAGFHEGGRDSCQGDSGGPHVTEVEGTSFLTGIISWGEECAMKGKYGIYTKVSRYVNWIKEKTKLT
SMILES,Ki (Coagulation factor IX) [µM],further results
Cc1ccc(O)c2c3c(nn12)CCC(C)(NC(=O)c1ccc(-n2ccnc2)cc1Cl)C3 (configuration not stated),0.595,
Cc1ccc(O)c2c3c(nn12)CCC(C)(NC(=O)c1ccc(-n2nccn2)cc1Cl)C3 (configuration not stated),30.3,
Cc1ccc(O)c2c3c(nn12)CCC(C)(NC(=O)c1ccc(F)cc1)C3 (configuration not stated),18.3,
Cc1ccc(O)c2nc(CCNC(=O)c3ccc(-n4cnnc4)cc3Cl)[nH]c12,131,
Cc1ccc(O)c2c3c(nn12)CCC(C)(NC(=O)c1ccc(C#N)cc1)C3 (configuration not stated),20.6,
Cc1ccc(O)c2c3c(nn12)CCC(C)(NC(=O)c1ccc(-n2ccnn2)cc1)C3 (configuration not stated),0.462,
Cc1ccc(O)c2c3c(nn12)CCC(C)(NC(=O)c1ccc(C#N)cc1F)C3 (configuration not stated),2,Ki (Coagulation factor X): > 62.5 µM
Cc1ccc(O)c2c3c(nn12)CCC(C)(NC(=O)c1ccc(-n2cccn2)cc1Cl)C3 (configuration not stated),4.4,
Cc1cc2nc([C@H](CNC(=O)c3ccc(-n4cnnc4)cc3Cl)c3ccccc3)[nH]c2cc1C,0.52,
Cc1ccc(O)c2c3c(nn12)CCC(C)(NC(=O)c1ccc(-n2cncn2)cc1Cl)C3 (configuration not stated),0.156,
Cc1cc2nc(CCNC(=O)c3ccc(C#N)cc3F)[nH]c2cc1C,> 145,
Cc1cc2nc([C@@H](CNC(=O)c3ccc(-n4cnnc4)cc3Cl)c3ccccc3)[nH]c2cc1C,0.016,Ki (Coagulation factor X): 0.39 µM; inhibition (INH) [1]: Not Active; inhibition (INH) [2]: Not Active
Cc1cc2nc(CCNC(=O)c3ccc(-n4cnnc4)cc3)[nH]c2cc1C,,Ki (Coagulation factor X): > 62.5 µM
Cc1ccc(O)c2c3c(nn12)CCC(C)(NC(=O)c1ccc(-n2cnnc2)cc1Cl)C3 (configuration not stated),0.09,Ki (Coagulation factor X): 12 µM; inhibition (INH) [1]: Not Active; inhibition (INH) [2]: Not Active
Cc1ccc(O)c2c3c(nn12)CCC(C)(NC(=O)c1ccc(-n2ccnn2)cc1Cl)C3 (configuration not stated),0.937,
Cc1ccc(O)c2c3c(nn12)CCC(C)(NC(=O)c1ccccc1Cl)C3 (configuration not stated),6.34,

# More lines, main results first:
Ki (Coagulation factor IX) [µM],SMILES,further results
55.4,Cc1cc2nc(C[C@H](C)NC(=O)c3ccc(-n4cnnc4)cc3Cl)[nH]c2cc1C,
> 145,Cc1cc2nc(CCNC(=O)c3ccccc3-n3cnnc3)[nH]c2cc1C,
0.34,Cc1cc2nc(C(C)CNC(=O)c3ccc(-n4cnnc4)cc3Cl)[nH]c2cc1C (racemic),
35,Cc1cc2nc(C[C@@H](C)NC(=O)c3ccc(-n4cnnc4)cc3Cl)[nH]c2cc1C,
5.58,Cc1cc2nc(CCNC(=O)c3ccc(-n4ccnc4)cc3Cl)[nH]c2cc1C,
> 145,Cc1cc2nc(CCNC(=O)c3ccc(-n4nccn4)cc3Cl)[nH]c2cc1C,
2.12,Cc1cc2nc(CCNC(=O)c3ccc(-n4cncn4)cc3Cl)[nH]c2cc1C,
130,Cc1cc2nc(CCNC(=O)c3ccc(-n4ccnn4)cc3Cl)[nH]c2cc1C,
> 145,Cc1cc2nc(CCNC(=O)c3ccccc3Cl)[nH]c2cc1C,
